Data taken from patent US20140357487A1, “PLANTS HAVING INCREASED TOLERANCE TO HERBICIDES” (BASF SE, priority 2011, published 2014).

Assays:
Kordia HPPD = test: HPPD activity assay, Kordia HPPD; assay type: biochemical; conditions: normalized on Arabidopsis wild-type HPPD
Method: (§1) HPPD produces homogentisic acid and CO2 from 4-hydroxyphenylpyruvate (4-HPP) and O2. The activity assay for HPPD is based on the analysis of homogentisic acid by reversed phase HPLC.
(§2) The assay mixture can contain 150 mM potassium phosphate buffer pH 7.0, 50 mM L-ascorbic acid, 1 μM FeSO4 and 7 μg of purified enzyme in a total volume of 1 ml.
Inhibitors are dissolved in DMSO (dimethylsulfoxide) to a concentration of 20 mM or 0.5 mM, respectively. From this stock solution serial five-fold dilutions are prepared in DMSO, which are used in the assay. The respective inhibitor solution accounts for 1% of the assay volume. […]
Activities are normalized by setting the uninhibited enzyme activity to 100%. IC50 values are calculated using non-linear regression. […]
(§3) Inhibitors are dissolved in DMSO (dimethylsulfoxide) to a concentration of 0.5 mM. […] IC50 values are calculated using non-linear regression.
Using methods which are described in the above examples or well known in the art, purified, recombinant wildtype HPPD enzymes are characterized with respect to their kinetic properties and sensitivity towards HPPD inhibiting herbicides. Apparent michaelis constants (Km) and maximal reaction velocities (Vmax) are calculated by non-linear regression with the software GraphPad Prism 5 (GraphPad Software, La Jolla, USA) using a substrate inhibition model. […]

Sorghum HPPD = test: HPPD activity assay, Sorghum HPPD; assay type: biochemical; conditions: normalized on Arabidopsis wild-type HPPD
Method: as §1, §2
Inhibitors are dissolved in DMSO (dimethylsulfoxide) to a concentration of 20 mM or 0.5 mM, respectively. From this stock solution serial five-fold dilutions are prepared in DMSO, which are used in the assay. The respective inhibitor solution accounts for 1% of the assay volume. Thus, final inhibitor concentrations range from 200 μM to 2.5 nM or from 5 μM to 63 pM, respectively. After a preincubation of 30 min the reaction is started by adding 4-HPP to a final concentration of 0.1 mM. The reaction is allowed to proceed for 120 min at room temperature. The reaction is stopped by addition of 100 μl of 4.5 M phosphoric acid.
Activities are normalized by setting the uninhibited enzyme activity to 100%. IC50 values are calculated using non-linear regression.
The assay mixture can contain 150 mM potassium phosphate buffer pH 7.0, 50 mM L-ascorbic acid, 100 μM Catalase (Sigma-Aldrich), 1 μM FeSO4 and 0.2 units of purified HPPD enzyme in a total volume of 505 μl. […]
as §3
Using methods which are described in the above examples or well known in the art, purified, recombinant wildtype HPPD enzymes are characterized with respect to their kinetic properties and sensitivity towards HPPD inhibiting herbicides. Apparent michaelis constants (Km) and maximal reaction velocities (Vmax) are calculated by non-linear regression with the software GraphPad Prism 5 (GraphPad Software, La Jolla, USA) using a substrate inhibition model. […] Weighted means (by standard error) of Km and […] values are calculated from at least three independent experiments. […]

[1] = system: transgenic soybean plants, Arabidopsis I393L L385V, event SDS-9908; test: Greenhouse testing of transgenic soybean plants, Arabidopsis I393L L385V; assay type: in vivo, Glycine max; conditions: soybean SDS-9908, 5 days after herbicide treatment, average of 8 T1
Description: Various methods for the production of stably transformed plants are well known in the art. Coumarone-derivative herbicide tolerant soybean (Glycine max) or corn (Zea mays) plants can be produced by a method described by Olhoft et al. (US patent 2009/0049567). Briefly, HPPD or HST encoding polynucleotides are cloned into a binary vector using standard cloning techniques as described by Sambrook et al. (Molecular cloning (2001) Cold Spring Harbor Laboratory Press). The final vector construct contains an HPPD or HST encoding sequence flanked by a promoter sequence (e.g. the ubiquitin promoter (PcUbi) sequence) and a terminator sequence (e.g. the nopaline synthase terminator (NOS) sequence) and a resistance marker gene cassette (e.g. AHAS) (FIG. 2). Optionally, the HPPD or HST gene can provide the means of selection. Agrobacterium-mediated transformation is used to introduce the DNA into soybean's axillary meristem cells at the primary node of seedling explants. After inoculation and co-cultivation with Agrobacteria, the explants are transferred to shoot induction medium without selection for one week. The explants are subsequently transferred to shoot induction medium with 1-3 μM imazapyr (Arsenal) for 3 weeks to select for transformed cells. Explants with healthy callus/shoot pads at the primary node are then transferred to shoot elongation medium containing 1-3 μM imazapyr until a shoot elongates or the explant dies. After regeneration, transformants are transplanted to soil in small pots, placed in growth chambers (16 hr day/8 hr night; 25° C. day/23° C. night; 65% relative humidity; 130-150 mE m−2 s−1) and subsequently tested for the presence of the T-DNA via Taqman analysis. After a few weeks, healthy, transgenic positive, single copy events are transplanted to larger pots and allowed to grow in the growth chamber. Transformation of corn plants is done by a method described by McElver and Singh (WO 2008/124495). Plant transformation vector constructs containing HPPD or HST sequences are introduced into maize immature embryos via Agrobacterium-mediated transformation. Transformed cells are selected in selection media supplemented with 0.5-1.5 μM imazethapyr for 3-4 weeks. Transgenic plantlets are regenerated on plant regeneration media and rooted afterwards. Transgenic plantlets are subjected to TaqMan analysis for the presence of the transgene before being transplanted to potting mixture and grown to maturity in greenhouse. Arabidopsis thaliana is transformed with HPPD or HST sequences by floral dip method as described by McElver and Singh (WO 2008/124495). Transgenic Arabidopsis plants are subjected to Tag Man analysis for analysis of the number of integration loci. Transformation of Oryza sativa (rice) are done by protoplast transformation as described by Peng et al. (U.S. Pat. No. 6,653,529)
Transgenic plants expressing heterologous HPPD or HST enzymes are tested for tolerance against coumarone-derivative herbicides in greenhouse experiments.
For post emergence treatment, the test plants are first grown to a height of 3 to 15 cm, depending on the plant habit, and only then treated with the herbicides. For this purpose, the test plants are either sown directly and grown in the same containers, or they are first grown separately and transplanted into the test containers a few days prior to treatment.
Depending on the species, the plants are kept at 10-25° C. or 20-35° C. The test period extends over 3 weeks. During this time, the plants are tended and their response to the individual treatments is evaluated. […] Tolerance to coumarone-derivative herbicides can also be assessed in Arabidopsis. In this case transgenic Arabidopsis thaliana plants are assayed for improved tolerance to coumarone-derivative herbicides in 48-well plates. Seeds are surface sterilized by stirring for 5 min in ethanol+water (70+30 by volume), rinsing one time with ethanol+water (70+30 by volume) and two times with a sterile, deionized water. […]

## CC1=NOC(c2c(Cl)ccc(C3=C(O)c4ncccc4C(C)(C)S3(=O)=O)c2Cl)C1 (stereo not shown) [Inhibitor 1, 7-[2,4-dichloro-3-(3-methyl-4,5-dihydroisoxazol-5-yl)phenyl]-5,5-dimethyl-6,6-dioxo-thiopyrano[4,3-b]pyridin-8-ol]
Kordia HPPD
  Normalized tolerance index TI: 22
Sorghum HPPD
  Normalized tolerance index TI: 2.1

## COCCOCc1c(Cl)ccc(C2=C(O)c3ncccc3C(C)(C)S2(=O)=O)c1Cl [Inhibitor 3, 7-[2,4-dichloro-3-(2-methoxyethoxymethyl)phenyl]-5,5-dimethyl-6,6-dioxo-thiopyrano[4,3-b]pyridin-8-ol]
Kordia HPPD
  Normalized tolerance index TI: 0.7

## CC1(C)c2cccnc2C(O)=C(c2ccc(Cl)nc2Cl)S1(=O)=O [Inhibitor 2, 7-(2,6-dichloro-3-pyridyl)-5,5-dimethyl-6,6-dioxo-thiopyrano[4,3-b]pyridin-8-ol]
Sorghum HPPD
  Normalized tolerance index TI: 1.2
[1]; 2.5 g/ha
  Injury evaluation, scale of 1-100, bleaching phenotype: 3
[1]; 10 g/ha
  Injury evaluation, scale of 1-100, bleaching phenotype: 3
[1]; 40 g/ha
  Injury evaluation, scale of 1-100, bleaching phenotype: 5

## Cc1c(C(=O)c2cnn(C)c2O)ccc(S(C)(=O)=O)c1C1=NOCC1 [Topramezone, reference compound]
[1]; 6.25 g/ha
  Injury evaluation, scale of 1-100, bleaching phenotype: 2
[1]; 25 g/ha
  Injury evaluation, scale of 1-100, bleaching phenotype: 7
[1]; 100 g/ha
  Injury evaluation, scale of 1-100, bleaching phenotype: 14
